Changes are numbered by the printed parent chain. Where two headings read alike, the source gives them in different places.
Assays:
F77^2.56I M1 mAChR [1] = target: T1, F77^2.56I M1 mAChR (Homo sapiens, UniProt P11229, F77I); test: IP-One (IP1) accumulation assay, FlpIn CHO cells; type: cell-based; conditions: for LogτB (logarithm of functional efficacy of the modulator): corrected for receptor expression levels relative to WT; for τB (functional efficacy of the modulator, antilog in brackets): corrected for receptor expression relative to WT; for Logαβ (logarithm of functional cooperativity between ACh and modulator): pKB constrained to Table 1, β constrained to 1
T1 construct: expressed in transfected cells
T1 sequence (P11229 1-460 F77I): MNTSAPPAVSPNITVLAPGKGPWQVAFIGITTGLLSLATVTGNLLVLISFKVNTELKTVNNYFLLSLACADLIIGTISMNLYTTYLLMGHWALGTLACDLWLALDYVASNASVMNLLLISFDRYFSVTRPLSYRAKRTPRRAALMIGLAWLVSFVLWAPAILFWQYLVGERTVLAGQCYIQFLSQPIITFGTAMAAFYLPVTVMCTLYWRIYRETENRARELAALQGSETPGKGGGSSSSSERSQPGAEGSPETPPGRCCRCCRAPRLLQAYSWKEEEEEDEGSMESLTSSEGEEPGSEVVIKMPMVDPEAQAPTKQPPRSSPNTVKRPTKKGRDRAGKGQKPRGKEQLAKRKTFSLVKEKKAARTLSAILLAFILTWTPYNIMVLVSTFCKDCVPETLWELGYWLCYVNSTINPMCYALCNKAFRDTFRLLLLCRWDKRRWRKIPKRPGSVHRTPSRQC
Method: (§1) The IP-One assay kit (Cisbio) was used for the direct quantitative measurement of myo-Inositol 1 phosphate (IP1). Cells were seeded at 25,000 per well into 96-well transparent cell culture plates and incubated overnight at 37 °C. […] Cells were then lysed with IP1 lysis buffer (50 mM HEPES pH 7.0, 15 mM KF, 1.5% V/V Triton-X-100, 3% V/V FBS, 0.2% W/V BSA), and IP1 levels were measured by incubation of cell lysates with FRET reagents (the cryptate-labeled anti-IP1 antibody and the d2-labeled IP1 analogue) for 1 h at 37 °C. […] Signals were expressed as the FRET ratio: F = (fluorescence665 nm/fluorescence590 nm) × 10^4, and normalized to the response to maximal ACh concentration (100 µM).
(§2) (Eq. (2)) was used:(2) Y=Basal+Em-Basal/1+KA+A/τA where Em is the maximal possible system response and Basal is the response in the absence of agonist. [A] denotes the concentration of ligand, and KA represents its equilibrium dissociation constants. τ denotes the intrinsic efficacy of the ligand, which incorporates the total receptor density and the efficiency of stimulus-response coupling.
(§3) Functional interaction studies between orthosteric agonists and allosteric modulators in IP1 assays were analysed using the following operational model of allosterism and agonism (Eq. (3)):(3) E=Basal+Em-BasalAKB+αβB+τBBEC50/EC50KB+B+AKB+αβB+τBBEC50 where Em is the maximal possible system response, and Basal is the response in the absence of agonist. KB is the equilibrium dissociation constant of allosteric ligand, and EC50 is the concentration of orthosteric agonist required to achieve half maximal response. [A] and [B] denote concentrations of orthosteric and allosteric ligands, respectively. α and β denote allosteric effects on orthosteric ligand binding affinity and efficacy, respectively, and τB denotes the efficacy of allosteric ligand. This model assumes that ACh is a full agonist at the receptor in both the absence/presence of modulator and/or there is no efficacy modulation (i.e., β = 1).

Y82^2.61A M1 mAChR = target: T2, Y82^2.61A M1 mAChR (Homo sapiens, UniProt P11229, Y82A); test: IP-One (IP1) accumulation assay, FlpIn CHO cells; type: cell-based; conditions: for LogτB (logarithm of functional efficacy of the modulator): corrected for receptor expression levels relative to WT; for τB (functional efficacy of the modulator, antilog in brackets): corrected for receptor expression relative to WT; for Logαβ (logarithm of functional cooperativity between ACh and modulator): pKB constrained to Table 1, β constrained to 1
T2 construct: expressed in transfected cells
T2 sequence (P11229 1-460 Y82A): T1 sequence (P11229 1-460 F77I) with I77F, Y82A
Method: as §1, §2, §3

F77^2.56I M1 mAChR [2] = target: T1, F77^2.56I M1 mAChR; test: Whole cell [3H]NMS binding inhibition/interaction assay (ACh ± PAM), FlpIn CHO cells; conditions: for Logα NMS (logarithm of binding cooperativity between [3H]NMS and modulator): constrained to −2 where preferred model by F-test
Method: (§4) Saturation binding assays were performed to estimate the expression levels and equilibrium dissociation constant of the radioligand (KD). FlpIn CHO cells stably expressing the WT or mutant c-myc hM1 mAChRs were plated at the density of 25,000 per well of 96-well white clear bottom Isoplates (PerkinElmer Life Sciences, Boston, MA), and grown overnight at 37 °C. […] Atropine at the final concentration of 100 µM was used to determine non-specific binding. The assays were terminated by rapid removal of the radioligand, and two washes with 100 µl/well ice-cold 0.9% NaCl buffer.
(§5) All data were analysed using GraphPad Prism 7 (San Diego, CA). […] Binding interaction studies between orthosteric agonists and allosteric modulators were fitted to the following allosteric ternary complex model (Eq. (1)):(1) Y=BmaxD/D+KDKB/α^′B+KB1+I/KI+B/KB+αIB/KIKB where Bmax is the total number of receptors, [D], [B] and [I] denote the concentrations of radioligand, allosteric ligand, and orthosteric ligand, respectively, and KD, KB and KI represent their respective equilibrium dissociation constants. α′ and α are the cooperativity factors between the allosteric ligand and radioligand or orthosteric ligand, respectively.

Y179^ECL2A M1 mAChR = target: T3, Y179^ECL2A M1 mAChR (Homo sapiens, UniProt P11229, Y179A); test: as above; conditions: affinity and cooperativity could not be estimated
T3 construct: expressed in transfected cells
T3 sequence (P11229 1-460 Y179A): T1 sequence (P11229 1-460 F77I) with I77F, Y179A
Method: as §4, §5

Cn1cc(-c2ccc(COc3ccccc3-c3cc(=O)n(C4CCCCC4O)cn3)cc2)cn1 (centres unmarked) [MIPS1780, 3-(2-hydroxycyclohexyl)-6-(2-((4-(1-methyl-1H-pyrazol-4-yl)-benzyl)oxy)phenyl)pyrimidin-4(3H)-one]
αβ (functional cooperativity with ACh, antilog in brackets) (F77^2.56I M1 mAChR [1]): 63
LogτB (logarithm of functional efficacy of the modulator) (F77^2.56I M1 mAChR [1]): 1.52 ± 0.06
τB (functional efficacy of the modulator, antilog in brackets) (F77^2.56I M1 mAChR [1]): 33
Logαβ (logarithm of functional cooperativity between ACh and modulator) (F77^2.56I M1 mAChR [1]): 1.80 ± 0.15
αβ (functional cooperativity with ACh, antilog in brackets) (Y82^2.61A M1 mAChR): 91
LogτB (logarithm of functional efficacy of the modulator) (Y82^2.61A M1 mAChR): 1.85 ± 0.12
τB (functional efficacy of the modulator, antilog in brackets) (Y82^2.61A M1 mAChR): 71
Logαβ (logarithm of functional cooperativity between ACh and modulator) (Y82^2.61A M1 mAChR): 1.96 ± 0.14
Kb (F77^2.56I M1 mAChR [2]): 661 nM
Logα ACh (logarithm of binding cooperativity between ACh and modulator) (F77^2.56I M1 mAChR [2]; F77^2.56I): 1.60 ± 0.09
α ACh (binding cooperativity with ACh, antilog in brackets) (F77^2.56I M1 mAChR [2]; F77^2.56I): 25.7
Logα NMS (logarithm of binding cooperativity between [3H]NMS and modulator) (F77^2.56I M1 mAChR [2]; F77^2.56I): = −2
Modulatory effect on ACh inhibition of [3H]NMS binding (Y179^ECL2A M1 mAChR): completely abolished

Cc1cnc(C(=O)N[C@H]2CCOC[C@@H]2O)cc1Cc1ccc(-c2cscn2)cc1 [PF-06767832, N-((3R,4S)-3-hydroxytetrahydro-2H-pyran-4-yl)-5-methyl-4-(4-(thiazol-4-yl)benzyl)pyridine-2-carboxamide]
αβ (functional cooperativity with ACh, antilog in brackets) (F77^2.56I M1 mAChR [1]): 112
LogτB (logarithm of functional efficacy of the modulator) (F77^2.56I M1 mAChR [1]): 1.51 ± 0.07
τB (functional efficacy of the modulator, antilog in brackets) (F77^2.56I M1 mAChR [1]): 32
Logαβ (logarithm of functional cooperativity between ACh and modulator) (F77^2.56I M1 mAChR [1]): 2.05 ± 0.13
αβ (functional cooperativity with ACh, antilog in brackets) (Y82^2.61A M1 mAChR): 46
LogτB (logarithm of functional efficacy of the modulator) (Y82^2.61A M1 mAChR): 0.95 ± 0.12
τB (functional efficacy of the modulator, antilog in brackets) (Y82^2.61A M1 mAChR): 9
Logαβ (logarithm of functional cooperativity between ACh and modulator) (Y82^2.61A M1 mAChR): 1.66 ± 0.12
Logα ACh (logarithm of binding cooperativity between ACh and modulator) (F77^2.56I M1 mAChR [2]; F77^2.56I): 1.83 ± 0.14
α ACh (binding cooperativity with ACh, antilog in brackets) (F77^2.56I M1 mAChR [2]; F77^2.56I): 44.7
α NMS (binding cooperativity with [3H]NMS, antilog in brackets) (F77^2.56I M1 mAChR [2]; F77^2.56I): 0.06
Kb (F77^2.56I M1 mAChR [2]; F77^2.56I, allosteric ternary complex model, 0.3 nM [3H]NMS, read-out: pKB (negative logarithm of the allosteric modulator equilibrium dissociation constant) (converted)): 417 nM
Logα NMS (logarithm of binding cooperativity between [3H]NMS and modulator) (F77^2.56I M1 mAChR [2]; F77^2.56I): −1.02 ± 0.12
Modulatory effect on ACh inhibition of [3H]NMS binding (Y179^ECL2A M1 mAChR): completely abolished

Cn1cc(-c2ccc(Cn3cc(C(=O)N[C@H]4CCCC[C@@H]4O)c4c(F)cc(F)cc43)cn2)cn1 [VU6004256, 4,6-difluoro-N-(1S,2S)-2-hydroxycyclohexyl-1-((6-(1-methyl-1H-pyrazol-4-yl)pyridine-3-yl)methyl)-1H-indole-3-carboxamide]
αβ (functional cooperativity with ACh, antilog in brackets) (F77^2.56I M1 mAChR [1]): 51
LogτB (logarithm of functional efficacy of the modulator) (F77^2.56I M1 mAChR [1]): 1.43 ± 0.06
τB (functional efficacy of the modulator, antilog in brackets) (F77^2.56I M1 mAChR [1]): 27
Logαβ (logarithm of functional cooperativity between ACh and modulator) (F77^2.56I M1 mAChR [1]): 1.71 ± 0.15
αβ (functional cooperativity with ACh, antilog in brackets) (Y82^2.61A M1 mAChR): 19
LogτB (logarithm of functional efficacy of the modulator) (Y82^2.61A M1 mAChR): 0.50 ± 0.10
τB (functional efficacy of the modulator, antilog in brackets) (Y82^2.61A M1 mAChR): 3
Logαβ (logarithm of functional cooperativity between ACh and modulator) (Y82^2.61A M1 mAChR): 1.29 ± 0.10
Kb (F77^2.56I M1 mAChR [2]): 417 nM
Logα NMS (logarithm of binding cooperativity between [3H]NMS and modulator) (F77^2.56I M1 mAChR [2]; F77^2.56I): = −2
Modulatory effect on ACh inhibition of [3H]NMS binding (Y179^ECL2A M1 mAChR): completely abolished

— publication PMC6066355, “Probing the binding site of novel selective positive allosteric modulators at the M1 muscarinic acetylcholine receptor” (Biochemical Pharmacology, 2018)
